Data: patent US6548488B2, “Composition comprising camptothecin or a camptothecin derivative and an alkylating agent for the treatment of cancer” (priority 2000, dated 2003)
Read-outs that look alike come from different tables or passages of the source. Marks after values point to notes of the source that are not given here.

Key:
[1] = system: P388/CPT; assay: Chemosensitivity of camptothecin-resistant i.p. P388/CPT leukemia, increase in life span; format: in vivo, mice; conditions: for Comment: response of P388/CPT
Experimental: Cross-resistance was measured in murine leukemia cell lines. P388/CPT is a camptothecin-resistant leukemia that was established in vitro (Biochem. Pharmacol., 45: 339 (1993) and maintained in vivo by i.p. passages in DBA2 female mice. The chemosensitivity of i.p. P388/CPT was evaluated with i.v. P388 sensitive reference drugs with different mechanisms of action. Antitumor efficacy was determined at the highest non-toxic dose as percent increase in life span (ILS), where:
ILS=100×[(median day of death (MDD) of treated mice)−(MDD control mice)]÷(MDD control mice)
A minimal level of activity equals an ILS of greater than 26%. […] Table III tabulates the results from this study.

[2] = system: P388; format: in vivo, mice; conditions: for %ILS: highest non-toxic dose
[3] = system: MA16/C, sc
Experimental: (§1) This efficacy may be quantified, for example by the log10 cell kill, which is determined by the following formula:
(§2) log10 cell kill=T-C(days)/3.32×Td
(§3) in which T-C represents the time taken for the cells to grow, which is the mean time in days for the tumors of the treated group (T) to reach a predetermined value (1 g for example) and the tumors of the control group (C) to reach the same value, and Td represents the time in days needed for the volume of the tumor in the control group to double (T. H. Corbett et al., Cancer, 40: 2660-2680 (1977); F. M. Schabel et al., Cancer Drug Development, Part B, Methods in Cancer Research, 17: 3-51, New York, Academic Press Inc. (1979)). A product is considered to be active if the log10 cell kill is greater than or equal to 0.7. A product is considered to be very active if the log10 cell kill is greater than 2.8.
The effectiveness of irinotecan combination chemotherapy methods were tested in a dose response study in a murine tumor model. Three arms were evaluated for tolerance and efficacy. Tolerance was measured by mortality, body weight loss at nadir, host recovery time, and combination toxicity index. Efficacy end points for solid tumor models were tumor growth delay (T/C), log10 cell kill (LCK, defined above), tumor regressions (i.e., complete remission (CR),or partial remission (PR)). For non-solid tumors, such as leukemia, efficacy was measured as the increase in life span (ILS).
Combination toxicity index (CTI) was calculated as the sum of the fraction of LD10's for each agent used in each combination (Cancer Treatment Reports, 66(5): 1187-1200 (1982)). The LD10 for the single agent was obtained by plotting the toxicity of that agent and the dosage in mg/kg as a log probit graph. Subsequently, the CTI LD10 was obtained by plotting as a log probit graph the observed lethality and the corresponding CTI calculated as the sum of the fraction of the LD10 of each single agent. When the CTI equals one, only 50% of the LD10's of each agent can be used in combination without additional toxicity, and when the CTI equals two, 100% of the LD10's of each agent can be used in combination without additional toxicity.

[4] = system: C51; assay: Oral vs i.v. irinotecan, C51 tumor in BALB/c mice; format: in vivo; conditions: days 5, 7, 9, 13, 15, twice daily; for LCK: optimal total dose
Experimental: as §2
(§4) Three arms were evaluated for tolerance and efficacy.
(§5) The optimal total dose for oral and intravenous administration routes for irinotecan alone in various murine models is indicated in Table II.

[5] = Tolerance of oral vs i.v. irinotecan in tumor bearing mice; format: in vivo; conditions: both methods of administration (oral and i.v.)
Experimental: as §4

[6] = system: MA16/C; assay: Oral vs i.v. irinotecan, MA16/C tumor in C3H/HeN mice; format: in vivo; conditions: for Optimal Total Dose: days 5-9; for LCK: days 5-9, optimal total dose
Experimental: as §2, §4, §5

[7] = system: GOS; assay: Oral vs i.v. irinotecan, GOS tumor in B6D2F1 mice; format: in vivo; conditions: for LCK: optimal total dose
Experimental: as §2, §4, §5

[8] = system: P03; assay: Oral vs i.v. irinotecan, P03 tumor in B6D2F1 mice; format: in vivo; conditions: twice daily; for LCK: optimal total dose
Experimental: as §2, §4, §5

[9] = system: mammary adenocarcinoma MA16/C/sp
Experimental: as §1, §2, §3
The effect of the combination of CPT-11 and cyclophosphamide was evaluated in a three arn study in mice bearing mammary adenocarcinoma MA16/C/sp. In the first arm, four dose levels of CPT-11 were given orally on days three through seven. In the second arm, five dose levels of cyclophosphamide were given intravenously on days three, five and seven. In the combination third arm, eight dosage levels of CPT-11 were administered orally on days three through seven, with administration of eight dosage levels of cyclophosphamide intravenously on days three, five and seven. This third arm illustrated an example of semi-simultaneous administration.

[10] = system: C26; assay: Oral vs i.v. irinotecan, C26 tumor in BALB/c mice; format: in vivo; conditions: for LCK: optimal total dose
Experimental: as §2, §4, §5

[11] = CPT-11 p.o. 25.0 mg/kg/adm, days 3-7
[12] = CPT-11 p.o. 40.0 mg/kg/adm, days 3-7 (HNTD)
[13] = CPA i.v. 37.0 mg/kg/adm, days 3, 5, 7
[14] = CPA i.v. 60.0 mg/kg/adm, days 3, 5, 7
[15] = CPA i.v. 97.0 mg/kg/adm, days 3, 5, 7 (HNTD)
[16] = CPA i.v. 156.0 mg/kg/adm, days 3, 5, 7

## CC[C@@]1(O)C(=O)OCc2c1cc1n(c2=O)Cc2cc3ccccc3nc2-1 [CPT, camptothecin]
[1]; sc, highest non-toxic dose
  %ILS: 0%
[1]; sc
  Comment: resistant
[2]; sc
  %ILS: 82%

## CCc1c2c(nc3ccc(OC(=O)N4CCC(N5CCCCC5)CC4)cc13)-c1cc3c(c(=O)n1C2)COC(=O)[C@]3(O)CC [CPT-11, irinotecan]
[3]; CPT-11, i.v. alone, days 3-7
  HNTD Dose: 200 mg/kg
[3]; CPT-11, i.v. alone, days 3-7, at HNTD
  LCK: 2.0
[1]; i.v., highest non-toxic dose
  %ILS: 0%
[1]; i.v.
  Comment: resistant
[4]; i.v.
  Optimal Total Dose: 615 mg/kg
  LCK: 3.0
[4]; oral
  Optimal Total Dose: 845 mg/kg
  LCK: 2.5
[5]
  body weight loss: 8.5%
  nadir: 7 days post last administration
[6]; i.v.
  Optimal Total Dose: 130.5 mg/kg
  LCK: 2.6
[6]; oral
  Optimal Total Dose: 230.5 mg/kg
  LCK: 2.7
[7]; i.v., days 3, 5, 7 twice daily
  Optimal Total Dose: 346.2 mg/kg
  LCK: 2.2
[7]; oral, days 3-7, twice daily
  Optimal Total Dose: 900 mg/kg
  LCK: 2.1
[8]; i.v.
  Optimal Total Dose: 346.2 mg/kg
  LCK: 3.2†
[8]; oral
  Optimal Total Dose: 900 mg/kg
  LCK: 3.4†
[9]; [11]
  Comments: Active
  Log10 cell kill: 1.1
  T-C: 4.1 days
  Time for median tumor to reach 750 mg: 12.3 days
[9]; CPT-11 p.o. 40.0 mg/kg/adm, days 3-7
  Comments: HNTD Active
[9]; [12]
  Log10 cell kill: 2.0
  T-C: 7.3 days
  Time for median tumor to reach 750 mg: 15.5 days
[9]; CPT-11 p.o. 64.0 mg/kg/adm, days 3-7
  Comments: Toxic
[9]; mouse, in vivo, po, 103 mg/kg
  Comments: Toxic
[2]; i.v.
  %ILS: 91%
[10]; i.v., twice daily
  Optimal Total Dose: 228 mg/kg
  LCK: 0.7
[10]; oral, days 3-7, twice daily
  Optimal Total Dose: 558 mg/kg
  LCK: 0.9

## O=P1(N(CCCl)CCCl)NCCCO1 (centres unmarked) [CPA, cyclophosphamide]
[3]; cyclophosphamide, i.v. alone, days 3, 5, 7
  HNTD Dose: 291 mg/kg
[3]; cyclophosphamide, i.v. alone, days 3, 5, 7, at HNTD
  LCK: 2.8
[1]; i.v., highest non-toxic dose
  %ILS: 153%
  TFS: 1/5
[1]; i.v., listed as Cyclophosphamide
  Comment: sensitive
[1]; i.v., listed as cyclophosphamide
  Comment: very sensitive
[9]; CPA i.v. 23.0 mg/kg/adm, days 3, 5, 7
  Comments: Inactive
[9]; [13]
  Comments: Active
  Log10 cell kill: 1.0
  T-C: 3.8 days
  Time for median tumor to reach 750 mg: 12.0 days
[9]; [14]
  Comments: Active
  Log10 cell kill: 1.9
  T-C: 6.9 days
  Time for median tumor to reach 750 mg: 15.1 days
[9]; CPA i.v. 97.0 mg/kg/adm, days 3, 5, 7
  Comments: HNTD Highly Active
[9]; [15]
  Log10 cell kill: 2.8
  T-C: 10.3 days
  Time for median tumor to reach 750 mg: 18.5 days
[9]; [16]
  Comments: Toxic
  Log10 cell kill: NTBA
  T-C (days): NTBA
  Time for median tumor to reach 750 mg in days: NTBA
[2]; i.v.
  sensitivity of the camptothecin sensitive cell line: very sensitive
  %ILS: 245%
